# Assay results published in US5639783A, “Ketone derivatives” (Mitsubishi Chemical Corporation, priority 1991, dated 1997).
# Like-named read-outs stand apart in the source and are kept apart here.
# Legend:
# m-calpain [1] = target: T1, m-calpain (Rattus norvegicus, UniProt Q07009); assay: Confirmation of reversible inhibitory activity (remaining m-calpain activity after incubation with inhibitor); assay type: biochemical; settings: incubated 0 to 20 minutes at 10° C.; 10 μM-150 μM inhibitor solution (1 μl); FIGS. 1 to 3
# T1 construct: m-calpain was purified from rat brain; from tissue; host or cells: rat brain
# T1 sequence (Q07009 20-700 limits assumed): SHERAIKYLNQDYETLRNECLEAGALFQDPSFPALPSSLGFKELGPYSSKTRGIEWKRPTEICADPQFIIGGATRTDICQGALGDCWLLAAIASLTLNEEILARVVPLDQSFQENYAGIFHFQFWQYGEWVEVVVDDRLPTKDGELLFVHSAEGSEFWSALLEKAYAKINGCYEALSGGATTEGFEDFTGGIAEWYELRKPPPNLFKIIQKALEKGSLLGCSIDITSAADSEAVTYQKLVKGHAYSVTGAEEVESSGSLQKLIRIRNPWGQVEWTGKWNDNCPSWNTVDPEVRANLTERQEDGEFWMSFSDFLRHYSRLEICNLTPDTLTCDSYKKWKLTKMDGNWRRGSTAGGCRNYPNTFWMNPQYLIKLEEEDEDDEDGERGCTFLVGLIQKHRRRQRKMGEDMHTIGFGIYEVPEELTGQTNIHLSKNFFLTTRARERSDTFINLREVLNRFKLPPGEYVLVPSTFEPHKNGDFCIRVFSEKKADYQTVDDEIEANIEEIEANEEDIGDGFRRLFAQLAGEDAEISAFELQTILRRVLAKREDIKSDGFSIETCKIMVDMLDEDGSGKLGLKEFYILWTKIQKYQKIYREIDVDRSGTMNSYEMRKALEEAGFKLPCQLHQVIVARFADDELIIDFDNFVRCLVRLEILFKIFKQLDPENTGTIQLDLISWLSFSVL
# T1 sequence (Q64537 1-270 partner): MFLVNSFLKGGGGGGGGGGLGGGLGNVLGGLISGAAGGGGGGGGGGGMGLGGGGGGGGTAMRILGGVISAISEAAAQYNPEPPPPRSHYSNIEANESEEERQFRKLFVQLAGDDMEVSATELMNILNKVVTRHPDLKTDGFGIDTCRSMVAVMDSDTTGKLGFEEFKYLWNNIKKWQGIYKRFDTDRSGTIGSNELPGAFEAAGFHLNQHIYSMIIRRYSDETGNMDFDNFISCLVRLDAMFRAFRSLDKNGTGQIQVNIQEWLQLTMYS
# Protocol: According to the assay for inhibitory activity against calpain in Experiment 1, reversible inhibitory activity of the present compounds was confirmed as follows.
# To an imidazole buffer (54 μl ) were added 500 mM CaCl2 solution (1 μl), 5 mM solution of the synthetic substrate described in the literature (4 μl), 10 μM-150 μM inhibitor solution (1 μl) and m-calpain solution (40 μl), and the mixture was incubated for 0 to 20 minutes at a temperature of 10° C. Then, 100 mM EDTA solution (5 μl) was added to inactivate the enzymatic activity. To the mixture was then added imidazole buffer (900 μl) followed by an addition of 5 mM synthetic substrate solution (40 μl) and 500 mM CaCl2 solution (10 μl), and the decomposition rate of the synthetic substrate was measured for 10 minutes at a temperature of 30° C. to determine the remaining activity of the enzyme.
# The compounds of Examples 3, 113 and 190 were used as the inhibitor, and E-64 which is an irreversible inhibitor was also used for comparison.
# cathepsin B = target: T2, cathepsin B (Bos taurus, UniProt P07688); assay: Thiol protease inhibitory activity, cathepsin B (C-6286, Sigma); assay type: biochemical; settings: Table 3
# T2 construct: purchased Sigma C-6286
# Protocol: (§1) Inhibitory activity against papain (P-3125, Sigma) and cathepsin B (C-6286, Sigma) was assayed according to the method described in a literature [Biochemical Journal, 201, 189 (1982)]. Cathepsin L was purified from rat kidney according to the method in a literature [Journal of Biochemistry, 100, 35 (1986)], and the inhibitory activity against it was assayed in the same manner as described in the above literature for cathepsin B. Furthermore, m-calpain was purified from rat brain according to a known method [Journal of Biological Chemistry, 254, p. 3210 (1984)] and the inhibitory activity against it was assayed by a method described in a literature [Journal of Biological Chemistry, 259, 12489 (1984)]. It is evident from Tables 3 and 4 that the compounds of the present invention have a potent inhibitory activity against thiol proteases such as papain, cathepsin B, cathepsin L or m-calpain.
# m-calpain [2] = target: T1, m-calpain; assay: Thiol protease inhibitory activity, m-calpain purified from rat brain; assay type: biochemical; settings: Table 3
# Outline: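 Papain and bovine cathepsin B assayed by a published method; cathepsin L purified from rat kidney and assayed in the same manner as cathepsin B. m-Calpain purified from rat brain and assayed by a separate published procedure.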
# papain = target: T3, papain (Carica papaya, UniProt P00784); assay: Thiol protease inhibitory activity, papain (P-3125, Sigma); assay type: biochemical
# T3 sequence (P00784 134-345): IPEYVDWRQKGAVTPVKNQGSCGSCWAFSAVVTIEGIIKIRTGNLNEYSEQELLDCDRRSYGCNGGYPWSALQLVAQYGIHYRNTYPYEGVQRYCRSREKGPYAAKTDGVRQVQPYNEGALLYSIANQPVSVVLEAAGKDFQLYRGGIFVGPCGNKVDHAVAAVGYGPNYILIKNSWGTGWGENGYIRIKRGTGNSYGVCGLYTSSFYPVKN
# Protocol: as §1
# cathepsin L = target: T4, cathepsin L (Rattus norvegicus, UniProt P07154); assay: Thiol protease inhibitory activity, cathepsin L purified from rat kidney; assay type: biochemical; settings: Table 3
# T4 construct: Cathepsin L was purified from rat kidney; from tissue; host or cells: rat kidney
# T4 sequence (P07154 114-334): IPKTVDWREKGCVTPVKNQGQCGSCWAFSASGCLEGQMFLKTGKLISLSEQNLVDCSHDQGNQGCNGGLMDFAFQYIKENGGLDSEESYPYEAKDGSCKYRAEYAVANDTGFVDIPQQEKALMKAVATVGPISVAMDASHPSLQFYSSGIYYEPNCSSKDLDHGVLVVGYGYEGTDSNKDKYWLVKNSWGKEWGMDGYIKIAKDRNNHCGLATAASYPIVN
# Protocol: as §1
# in vivo = settings: rat, po
# Protocol: The LD50 value of the compound prepared in Example 94 was: >2,000 mg/kg.
# [3] = tested on: rat which has an enhanced bone destruction by administration of parathyroid hormone; settings: cited from earlier work
# cataract animal models = settings: Investigative Ophthalmology & Visual Science, 32, p. 533 (1991); cited from earlier work
# production of IgE = settings: The Journal of Antibiotics, 42, p. 1362 (1989); cited from earlier work
Structure (SMILES),remaining enzymatic activity after incubation with inhibitor (reversible inhibition) (m-calpain [1]),IC50 (cathepsin B) [µM],IC50 (m-calpain [2]) [µM],IC50 (papain) [µM],IC50 (cathepsin L) [µM],LD50 at 168 h (in vivo) [mg/kg],"IC50 (papain; Table 3, read-out: IC50 papain) [µM]",calcium concentration and hydroxyproline concentration in blood [3],effect on cataract (cataract animal models),production of IgE (production of IgE)
"CCCC[C@H](NC(=O)[C@H](CC(C)C)NC(=O)COc1ccccc1)C(=O)CSCc1ccco1 [3 (No. 82), (s)-1-furfurylthio-3-((s)-4-methyl-2-phenoxyacetylaminovalerylamino)-2-heptanone]",activity nearly equal to that of a control remained,0.71,3.3,0.26,0.016,–,–,–,–,–
"CCCC[C@H](NC(=O)[C@H](CC(C)C)NC(=O)c1cc(=O)c2ccccc2o1)C(=O)CSCc1ccco1 [94 (No. 188), (s)-1-furfurylthio-3-[(s)-4-methyl-2-(4-oxo-4H-1-benzopyranylcarbonylamino)valerylamino]-2-heptanone]",–,1.1,9.2,0.77,0.024,> 2000,–,–,–,–
"CC(C)C[C@H](NC(=O)COc1ccccc1Cl)C(=O)N[C@@H](Cc1ccccc1)C(=O)CSCc1ccco1 [167 (No. 354), (s)-3-[(s)-2-(2-chlorophenoxyacetylamino)-4-methylvalerylamino]-1-furfurylthio-4-phenyl-2-butanone]",–,30,20,–,1.4,–,> 100,–,–,–
"CC(C)C[C@H](NC(=O)COc1cccc2ccccc12)C(=O)N[C@@H](Cc1ccccc1)C(=O)CSCc1ccco1 [170 (No. 364), (s)-1-furfurylthio-3-[(s)-4-methyl-2-(1-naphtoxyacetylamino)valerylamino]-4-phenyl-2-butanone]",–,6.5,19,–,8.6,–,9.2,–,–,–
"CC(C)C[C@H](NC(=O)c1cc2ccccc2o1)C(=O)N[C@@H](Cc1ccccc1)C(=O)CSCc1ccco1 [174 (No. 382), (s)-3-[(s)-2-(2-benzofuranylcarbonylamino)-4-methylvalerylamino]-1-furfurylthio-4-phenyl-2-butanone]",–,23,16,–,1.6,–,12,–,–,–
"CC(C)C[C@H](NC(=O)OCc1ccccc1)C(=O)N[C@@H](Cc1ccccc1)C(=O)CN(C)C [190 (No. 465), (s)-3-((s)-2-benzyloxycarbonylamino-4-methylvalerylamino)-1-dimethylamino-4-phenyl-2-butanone]",activity nearly equal to that of a control remained,1.6,7.3,–,2.8,–,40,–,–,–
"CC(C)C[C@H](NC(=O)OCc1ccccc1)C(=O)N[C@@H](Cc1ccccc1)C(=O)CN(C)Cc1ccco1 [191 (No. 479), (s)-3-((s)-2-benzyloxycarbonylamino-4-methylvalerylamino)-1-(N-methylfurfurylamino)-4-phenyl-2-butanone]",–,3.5,24,–,9.3,–,> 100,–,–,–
"CC(C)C[C@H](NC(=O)COc1ccccc1)C(=O)N[C@@H](Cc1ccc(Cl)cc1)C(=O)CSCc1ccco1 [197 (No. 511), (s)-4-(4-chlorophenyl)-1-furfurylthio-3-((s)-4-methyl-2-phenoxyacetylaminovalerylamino)-2-butanone]",–,6,7.8,13,1.7,–,–,–,–,–
"CSCC(=O)[C@H](CCc1ccccc1)NC(=O)[C@H](CC(C)C)NC(=O)OCc1ccccc1 [202 (No. 534), (s)-3-((s)-2-benzyloxycarbonylamino-4-methylvalerylamino)-1-methylthio-5-phenyl-2-pentanone]",–,0.25,13,–,0.39,–,> 100,–,–,–
"CSCC(=O)[C@H](CCc1ccccc1)NC(=O)[C@H](CC(C)C)NC(=O)COc1ccccc1 [203 (No. 536), (s)-3-((s)-4-methyl-2-phenoxyacetylaminovalerylamino)-1-methylthio-5-phenyl-2-pentanone]",–,0.34,9.1,4.4,0.38,–,–,–,–,–
"CC(C)C[C@H](NC(=O)COc1ccccc1)C(=O)N[C@@H](CCc1ccccc1)C(=O)CSCc1ccco1 [206 (No. 543), (s)-1-furfurylthio-3-((s)-4-methyl-2-phenoxyacetylaminovalerylamino)-5-phenyl-2-pentanone]",–,0.82,15,6,0.62,–,–,–,–,–
"CC(C)C[C@H](NC(=O)COc1ccccc1)C(=O)NC(Cc1cccc2ccccc12)C(=O)CSCc1ccco1 (stereo partly drawn) [209 (No. 555), l-furfurylthio-3-((s)-4-methyl-2-phenoxyacetylaminovalerylamino)-4-(1-naphtyl)-2-butanone]",–,6.5,19,–,1.5,–,9,–,–,–
"CC(C)C[C@H](NC(=O)OCc1ccccc1)C(=O)N[C@@H](CCC(=O)O)C(=O)CSCc1ccco1 [217 (No. 600), (s)-4-((s)-2-benzyloxycarbonylamino-4-methylvalerylamino)-6-furfurylthio-5-oxohexanoic Acid]",–,2.5,19,–,11,–,26,–,–,–
CC(C)C[C@H](NC(=O)[C@H]1O[C@@H]1C(=O)O)C(=O)NCCCCNC(=N)N [E-64],enzymatic activity rapidly disappeared in proportion to the incubation period,–,–,–,–,–,–,decrease of calcium concentration and hydroxyproline concentration in blood,effective on cataract in animal models,–
NC(N)=NCCCCNC(=O)[C@H](Cc1ccccc1)NC(=O)[C@H]1O[C@@H]1C(=O)O [Estatin A],–,–,–,–,–,–,–,decrease of calcium concentration and hydroxyproline concentration in blood,–,specifically inhibit the production of IgE without affecting on the production of IgG
"CSCC(=O)[C@H](Cc1ccccc1)NC(=O)[C@H](CC(C)C)NC(=O)OCc1ccccc1 [Example 113, (s)-3-((s)-2-benzyloxycarbonylamino-4-methylvalerylamino)-1-methylthio-4-phenyl-2-butanone]",activity nearly equal to that of a control remained,–,–,–,–,–,–,–,–,–
